Entries after “also recorded” stand apart in the source; their conditions may differ.
Columns and labels:
SARS-CoV-2, Beta variant [1] = test system: SARS-CoV-2, Beta variant; design: species or system mice; details: mouse, in vivo, ip, 10 mg/kg
SARS-CoV-2, Beta variant [2] = type: in vivo; details: COVID-19 positive mice; for body weight nonlinear regression, Best fit / body weight as percent of baseline weight over time: 10 mg/kg I.P. BID, 10 day group; for body weight as percent of baseline weight over time: 10 mg/kg

| SMILES | survival outcome (SARS-CoV-2, Beta variant [1]) | body weight nonlinear regression, Best fit (SARS-CoV-2, Beta variant [2]) | body weight as percent of baseline weight over time (SARS-CoV-2, Beta variant [2]) | body weight nonlinear regression, Slope 1 (SARS-CoV-2, Beta variant [2]; Segmental Line fit) | body weight nonlinear regression, Slope2 (SARS-CoV-2, Beta variant [2]; Segmental Line fit) | body weight nonlinear regression, X0 (SARS-CoV-2, Beta variant [2]; Segmental Line fit) |
| --- | --- | --- | --- | --- | --- | --- |
| CC(C(O)c1ccc(O)cc1)N1CCC(Cc2ccccc2)CC1 (stereo not drawn) [ifenprodil] | some protective effect | Segmental Line | appear to reduce observable signs of disease; also recorded: reduction in body weight starting around day 5; also recorded: body weight returned to normal levels by day 10 post-inoculation | -0.8076 | 0.8604 | 6 |
| CC12CC3CC(C)(C1)CC(N)(C3)C2 [memantine] | good survival; also recorded: significantly improved survival outcome | Horizontal Line | appear to reduce observable signs of disease; also recorded: little to no fluctuation in body weight | – | – | – |
